Results: PubChem BioAssay AID1845219 (Molecular Pharmacology Branch, DTP, NCI, 2023)

Tested on: SYO-1 tumor spheroids, viability % test/control
Assay: Anticancer human tumor SYO-1 cell line growth inhibition;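 also: spheroids exposed to agents for 7 days before viability read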;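 as to viability, T/C: 100% = DMSO vehicle control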
Conditions: spheroids with HUVEC and MSC; for IC50: curve of first compound; for viability, T/C: stronger effect = lower value
Method in brief: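 Complex spheroids of malignant cells with endothelial cells and mesenchymal stem cells; agents alone or combined, from near clinical Cmax (or 10 microM if unknown) down in half-log steps, 0.25% DMSO final.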

[1] = second compound 1 µM, first compound 0.0316 µM
[2] = second compound 1 µM, first compound 0.1 µM
[3] = second compound 1 µM, first compound 0.316 µM
[4] = second compound 1 µM, first compound 1 µM
[5] = second compound 1 µM, first compound 3.16 µM
[6] = second compound 1 µM, first compound 10 µM
[7] = second compound 3.16 µM, first compound 0.0316 µM
[8] = second compound 3.16 µM, first compound 0.1 µM
[9] = second compound 3.16 µM, first compound 0.316 µM
[10] = second compound 3.16 µM, first compound 1 µM
[11] = second compound 3.16 µM, first compound 3.16 µM
[12] = second compound 3.16 µM, first compound 10 µM
[13] = second compound 10 µM, first compound 0.0316 µM
[14] = second compound 10 µM, first compound 0.1 µM
[15] = second compound 10 µM, first compound 0.316 µM
[16] = second compound 10 µM, first compound 1 µM
[17] = second compound 10 µM, first compound 3.16 µM
[18] = second compound 10 µM, first compound 10 µM
[19] = second compound 31.6 µM, first compound 0.0316 µM
[20] = second compound 31.6 µM, first compound 0.1 µM
[21] = second compound 31.6 µM, first compound 0.316 µM
[22] = second compound 31.6 µM, first compound 1 µM
[23] = second compound 31.6 µM, first compound 3.16 µM
[24] = second compound 31.6 µM, first compound 10 µM
[25] = second compound 100 µM, first compound 0.0316 µM
[26] = second compound 100 µM, first compound 0.1 µM
[27] = second compound 100 µM, first compound 0.316 µM
[28] = second compound 100 µM, first compound 1 µM
[29] = second compound 100 µM, first compound 3.16 µM
[30] = second compound 100 µM, first compound 10 µM

CC1COCCN1c1cc(-c2ccnn2C)c2ccnc(-c3ccn[nH]3)c2n1 (stereo not given) + Cn1nnc2c(C(N)=O)ncn2c1=O
IC50 (second compound 1 µM): < 0.0316 µM
IC50 (second compound 3.16 µM): < 0.0316 µM
IC50 (second compound 10 µM): < 0.0316 µM
IC50 (second compound 31.6 µM): < 0.0316 µM
IC50 (second compound 100 µM): < 0.0316 µM
viability, T/C [1]: 41.1%
viability, T/C [2]: 5.35%
viability, T/C [3]: 2.75%
viability, T/C [4]: 1.62%
viability, T/C [5]: 0.73%
viability, T/C [6]: 0.7%
viability, T/C [7]: 38.4%
viability, T/C [8]: 4.75%
viability, T/C [9]: 3.22%
viability, T/C [10]: 1.73%
viability, T/C [11]: 7.91%
viability, T/C [12]: 20%
viability, T/C [13]: 20.3%
viability, T/C [14]: 3.73%
viability, T/C [15]: 2.69%
viability, T/C [16]: 1.48%
viability, T/C [17]: 5.25%
viability, T/C [18]: 21.1%
viability, T/C [19]: 11.1%
viability, T/C [20]: 10.2%
viability, T/C [21]: 2.45%
viability, T/C [22]: 1.18%
viability, T/C [23]: 7.18%
viability, T/C [24]: 6.71%
viability, T/C [25]: 2.97%
viability, T/C [26]: 2.88%
viability, T/C [27]: 1.91%
viability, T/C [28]: 1.24%
viability, T/C [29]: 0.77%
viability, T/C [30]: 0.75%

COc1cc(C)[nH]c(=O)c1CN1CCc2c(Cl)cc(C(OC)C3COC3)c(Cl)c2C1=O (stereo not given) + Cn1nnc2c(C(N)=O)ncn2c1=O
IC50 (second compound 1 µM): > 10 µM
IC50 (second compound 3.16 µM): > 10 µM
IC50 (second compound 10 µM): > 10 µM
IC50 (second compound 31.6 µM): > 10 µM
IC50 (second compound 100 µM): 0.697 µM
viability, T/C [1]: 110%
viability, T/C [2]: 108%
viability, T/C [3]: 97.7%
viability, T/C [4]: 86.7%
viability, T/C [5]: 81.1%
viability, T/C [6]: 73.8%
viability, T/C [7]: 110%
viability, T/C [8]: 107%
viability, T/C [9]: 99.5%
viability, T/C [10]: 89.1%
viability, T/C [11]: 77%
viability, T/C [12]: 67.8%
viability, T/C [13]: 108%
viability, T/C [14]: 107%
viability, T/C [15]: 97.6%
viability, T/C [16]: 89.7%
viability, T/C [17]: 76.2%
viability, T/C [18]: 71.6%
viability, T/C [19]: 119%
viability, T/C [20]: 111%
viability, T/C [21]: 95.1%
viability, T/C [22]: 80.8%
viability, T/C [23]: 69.6%
viability, T/C [24]: 62.4%
viability, T/C [25]: 106%
viability, T/C [26]: 102%
viability, T/C [27]: 69.7%
viability, T/C [28]: 40.5%
viability, T/C [29]: 41.7%
viability, T/C [30]: 35.6%

Cc1cc(C)c(CNC(=O)c2cc(-c3ccc(CN4CCOCC4)cc3)cc3c2cnn3C2CCCC2)c(=O)[nH]1 + Cn1nnc2c(C(N)=O)ncn2c1=O
IC50 (second compound 1 µM): > 10 µM
IC50 (second compound 3.16 µM): > 10 µM
IC50 (second compound 10 µM): > 10 µM
IC50 (second compound 31.6 µM): > 10 µM
IC50 (second compound 100 µM): 7.99 µM
viability, T/C [1]: 106%
viability, T/C [2]: 105%
viability, T/C [3]: 110%
viability, T/C [4]: 104%
viability, T/C [5]: 106%
viability, T/C [6]: 97%
viability, T/C [7]: 103%
viability, T/C [8]: 106%
viability, T/C [9]: 103%
viability, T/C [10]: 104%
viability, T/C [11]: 105%
viability, T/C [12]: 89.6%
viability, T/C [13]: 103%
viability, T/C [14]: 106%
viability, T/C [15]: 106%
viability, T/C [16]: 108%
viability, T/C [17]: 101%
viability, T/C [18]: 71.2%
viability, T/C [19]: 106%
viability, T/C [20]: 108%
viability, T/C [21]: 107%
viability, T/C [22]: 111%
viability, T/C [23]: 105%
viability, T/C [24]: 74.6%
viability, T/C [25]: 107%
viability, T/C [26]: 111%
viability, T/C [27]: 107%
viability, T/C [28]: 101%
viability, T/C [29]: 76.1%
viability, T/C [30]: 43.7%

[2H]c1nc(C)nc([2H])c1-c1cc(NC[C@@H](C)c2cccc3c(C(=O)NC)ccnc23)ncn1 + Cn1nnc2c(C(N)=O)ncn2c1=O
IC50 (second compound 1 µM): > 10 µM
IC50 (second compound 3.16 µM): > 10 µM
IC50 (second compound 10 µM): > 10 µM
IC50 (second compound 31.6 µM): > 10 µM
IC50 (second compound 100 µM): > 10 µM
viability, T/C [1]: 105%
viability, T/C [2]: 105%
viability, T/C [3]: 102%
viability, T/C [4]: 98.9%
viability, T/C [5]: 93.3%
viability, T/C [6]: 83%
viability, T/C [7]: 110%
viability, T/C [8]: 113%
viability, T/C [9]: 105%
viability, T/C [10]: 96.5%
viability, T/C [11]: 90%
viability, T/C [12]: 84.8%
viability, T/C [13]: 109%
viability, T/C [14]: 106%
viability, T/C [15]: 106%
viability, T/C [16]: 96.1%
viability, T/C [17]: 90.2%
viability, T/C [18]: 88.4%
viability, T/C [19]: 115%
viability, T/C [20]: 109%
viability, T/C [21]: 110%
viability, T/C [22]: 102%
viability, T/C [23]: 96.4%
viability, T/C [24]: 94%
viability, T/C [25]: 113%
viability, T/C [26]: 115%
viability, T/C [27]: 111%
viability, T/C [28]: 110%
viability, T/C [29]: 93.7%
viability, T/C [30]: 94.3%
